Test results taken from US20110306638A1, “BENZISOXAZOLE PIPERIDINYL DERIVATIVES, PHARMACEUTICAL COMPOSITIONS COMPRISING THE DERIVATIVES AND THEIR USE” (NHWA PHARMA. CORPORATION, priority 2008, published 2011).
Like-named read-outs stand apart in the source and are kept apart here. Marks after values point to notes of the source that are not given here.

Legend:
5-HT2A receptor = biological target: T1, 5-HT2A receptor (Homo sapiens, UniProt P28223); test: In-vitro competitive binding to 5-HT2A receptor, [3H]-Ketanserin, transformed HEK293 cells; conditions: for inhibition at 10 µM: read-out: 5-HT2A [3H]-Ketanserin inhibition percentage; for IC50 / Ki: affinity to 5-HT2A receptor, concentration gradient test
T1 construct: expressed in transfected cells; host or cells: HEK293
Method: All test samples were dissolved in DMSO at a concentration of 0.01 mol/L, and then diluted with deionized water to 100 umol/L.
HEK293 cells were transformed with plasmid carriers containing the gene coding for 5-HT2A receptor protein by using calcium phosphate transformation. Stable cell strains which could stably express 5-HT2A receptor protein were obtained from the transformed cells by cultivating in a culture media containing G418, selecting monoclones of the cell and performing radioactive ligand binding assay.
Beckman LS 6500 Scintillation Counter.
HEK-293 cells were infected with recombined viruses containing various genes described above. […] Cells were centrifuged at 1000 rpm for 5 min Culture media was discarded, and cell bodies were collected and stored at −20° C. in a freezer. The cell bodies were resuspended with Tris-HCl reaction buffer during assay.
After incubation at 37° C. for 15 min, the reaction mixture was immediately transferred into ice bath to terminate the reaction; the reaction mixture was quickly filtered through GF/C glass cellulose filter on a Millipore cell sample collector, and was then washed with eluting solution (50 mM Tris-HCl, PH 7.7, 3 ml×3) and dried in a microwave for 8-9 min. The filter was transferred into a 0.5 ml centrifuge tube, and 500 μl lipid soluble scintillation fluid was added. The centrifuge tube was allowed to stand in darkness for more than 30 min. Radioactivity was determined by counting Inhibition percentage of each compound on isotope ligand binding was calculated according to the following equation:
inhibition percentage(I %)=cpm of overall binding tube−cpm of compound/cpm of overall binding tube−cpm of nonspecific binding tube×100%.
Each compound was tested in two duplicate test tubes and two separate tests were performed.

Kunming mice [1] = test: Acetic acid-induced abdominal writhing test in mice; type: in vivo
Method: Kunming mice, SPF KM mice purchased from […] SLAC LABORATORY ANIMAL CO. LTD and kept in normal environment.
The compounds were dissolved in water for injection at a concentration of 4 mg/ml, 2 mg/ml and 1 mg/ml and were given intragastrically to animals.
(§1) Three different doses (10, 20, and 40 mg/kg) were administered to the test groups.
Aspirin was used as a positive control and acetic acid writhing test was used.
30 mice (half male and half female) weighing 18-23 g were divided into five groups, including negative control group, positive control group, low dose group, medium dose group and high dose group:
Mice in test group received test drug (10 mg/kg, 20 mg/kg, 40 mg/kg) via intragastric administration. Negative control group received physiological saline (20 ml/kg) via oral administration. Positive control group received aspirin (200 mg/kg) via oral administration. One hour later, each group received 0.7% acetic acid 10 ml/kg intraperitoneally. Five minutes later, the number of writhes was counted within the subsequent 15 min period; inhibition percentage of writhing response in each test group was calculated by the following equation: […]

Kunming mice [2] = test: Hot-plate test in mice; type: in vivo; conditions: 1 h post dose
Method: Kunming mice, SPF KM mice were purchased from […] SLAC LABORATORY ANIMAL CO. LTD and kept in normal environment.
The compounds were dissolved in water for injection at a concentration of 4 mg/ml, 2 mg/ml and 1 mg/ml and were given subcutaneously to animals.
as §1
Morphine was used as a positive control and hot plate test was used.
30-40 mice (half male and half female) weighed from 18 to 23 gram were used. First, each mouse was placed on a hot plat at 55° C. to determine basic pain threshold for 2-3 times. Those animals with basic pain threshold of 5-30 s were qualified, unqualified mice were not used. 30 qualified mice were divided into five groups, including negative control group, positive control group, low-dose group, medium-dose group and high-dose group:
Mice in test groups received test sample solution (10 mg/kg, 20 mg/kg, 40 mg/kg) via subcutaneous injection in the neck. Positive control group received subcutaneous injection of morphine (2 mg/kg). One hour later, pain threshold values were determined for mice in each group as post-drug pain threshold. Percentage increase in pain threshold was calculated according to the following equation: […]

mice = test: Sedative effects in mice (spontaneous activities); type: in vivo; parameters: unit not given here; conditions: single dose 20 mg/kg
Method: Spontaneous activities of the mice were recorded by alternating current tube, Sedative effects were tested after single dose (20 mg/kg).

[3] = biological target: opioid receptor subtype μ (Homo sapiens, UniProt P35372); test: Competitive binding to opioid receptor subtype μ, [3H]Diprenorphine; conditions: tested concentration 10^−5 mol/L; read-out: μ inhibition percentage of competitive binding
Method: (§2) The respective test compounds were added to the sample tube (final concentration of 10^−5M), incubated at 37° C. for 30 min and placed in ice bath to terminate the reaction. The reaction mixture was filtered through GF/C (Whatman) glass fiber filter by vacuum filtration on a Millipore sample collector. The filter was washed three times with 50 mM Tris-HCl (pH7.4), each with 4 ml; dried and transferred into a 0.5 ml Eppendorf tube, in which 0.5 ml lipophilic scintillation fluid was added. Radioactivity was detected by a LS6500 scintillation counter. Each concentration had three duplicate test tubes and each separate test was repeated 3 to 4 times.
(§3) Specific binding CMP value for each sample tube=overall binding CPM value for each sample tube−CPM value of non-specific binding tube.
(§4) [Inhibition percentage of competitive binding between the test compound and different opioid receptor subtypes (%)=(100%−specific binding (CPM value)of sample tube/specific binding(CPM value)of solvent group×100%)]
(§5) Average was taken for each test drug from three duplicate tubes; each test was repeated two or more times.

[4] = biological target: opioid receptor subtype δ (Homo sapiens, UniProt P41143); test: Competitive binding to opioid receptor subtype δ, [3H]Diprenorphine; conditions: tested concentration 10^−5 mol/L; read-out: δ inhibition percentage of competitive binding
Method: as §2, §3, §4
Average was taken for each test drug from three duplicate tubes; each test was repeated two or more times. Data were presented as mean±SE and statistical comparison was made by ANOVA.

[5] = biological target: opioid receptor subtype κ (Homo sapiens, UniProt P41145); test: Competitive binding to opioid receptor subtype κ, [3H]Diprenorphine; conditions: tested concentration 10^−5 mol/L; read-out: κ inhibition percentage of competitive binding
Method: as §2, §3, §4, §5

[6] = biological target: T2, 5-HT reuptake by brain synapses (Rattus norvegicus, UniProt P31652); test: [3H]5-HT reuptake test in rat brain synapses; type: biochemical; conditions: for inhibition at 10 µM: final concentration 10 umol/L, rat brain synapses, read-out: 5-HTU [3H] 5-HT reuptake inhibition percentage Mean
T2 construct: forehead cortex was obtained for [^3H]5-HT, [^3H]NA reuptake test; from tissue; host or cells: rat (SD) forebrain cortex synaptosomes
Method: The method was as follows:
Male SD rats were killed by cervical dislocation, heads were immediately cut and brains were obtained and put on ice, related brain tissues were dissected (forehead cortex was obtained for [^3H]5-HT, [^3H]NA reuptake test, corpus striatum was obtained for [^3H]DA reuptake).
After the sample was weighed, 10 folds (V/W) ice cold 0.32 mol/L sucrose solution was added.
According to [a. […] 5-HT was added and after incubation in water bath at 37° C. for 10 min, the reaction mixture was immediately taken out of the water bath and 2 ml ice cold 150 mmol/L Tris-HCl was added to terminate the reaction. The sample was collected on a round glass fiber filter by vacuum filtration and washed three times with 3 ml ice cold Tris-HCl buffer. The filter membrane was removed, dried in a far-infrared oven for 15 min, then transferred into a EP tube, in which 1.5 ml scintillation fluid was added, left overnight and detected by a scintillation counter. The test sample was not added into solvent controlled overall binding tube or non-specific binding tube. 50 μl solvent was added into the overall binding tube, and in [^3H] 5-HT reuptake test, 600 μmol/L cocaine was added into the non-specific binding tube.

[7] = 10 mg/kg intragastric administration
[8] = 20 mg/kg intragastric administration
[9] = 40 mg/kg intragastric administration

Row | Compound | inhibition at 10 µM (5-HT2A receptor) [%] | Inhibition percentage of writhing response (Kunming mice [1]; [7]) | Inhibition percentage of writhing response (Kunming mice [1]; [8]) | Inhibition percentage of writhing response (Kunming mice [1]; [9]) | Percentage increase in pain threshold (Kunming mice [2]; 10 mg/kg S.c.) | Percentage increase in pain threshold (Kunming mice [2]; 20 mg/kg S.c.) | Percentage increase in pain threshold (Kunming mice [2]; 40 mg/kg S.c.) | Sedative effect (mice) | inhibition at 10 µM [3] [%] | inhibition at 10 µM [4] [%] | inhibition at 10 µM [5] [%] | IC50 (5-HT2A receptor) [nM] | Ki (5-HT2A receptor) [nM] | inhibitory activity on 5-HT2A (in words) (5-HT2A receptor; compared with Aripiprazole) | inhibition at 10 µM (5-HT2A receptor; final concentration 10 umol/L) [%] | inhibitory activity on 5-HT reuptake (in words) ([6]; at 10 μmol/L, compared with Dutoxetine) | inhibition at 10 µM [6] [%]
1 | Fc1ccc2c(C3CCN(CCCOn4nnc5ccc(Cl)cc54)CC3)noc2c1 [IV-4, 3-(1-(3-(6-chloro-1H-benzo[d][1,2,3]triazol-1-yloxy)propyl)piperidin-4-yl)-6-fluorobenzo[d]isoxazole] | 97.4 | 88.33% | 99.44% | 97.78% | 51.63% | 79.36* % | 89.96* % | 70.8* | 34.3 ± 1.3 | 0 | 37.3 ± 1.7 |  |  |  |  |  | 
2 | N#Cc1ccc2cnn(CCCCN3CCC(c4noc5cc(F)ccc45)CC3)c2c1 [II-14, 1-(4-(4-(6-fluorobenzo[d]isoxazol-3-yl)piperidin-1-yl)butyl)-1H-indazole-6-carbonitrile] |  | 77.70* % | 69.03% | 85.66** % |  |  |  | 20 | 41.9 ± 0.5 | 0 | 7 ± 0.6 | 3.09 | 2.06 | potent inhibitory activities | 99.7 | potent inhibitory activities | 88.3
3 | Fc1ccc2c(C3CCN(CCCCn4cnc5ccc(F)cc54)CC3)noc2c1 [III-2, 6-fluoro-3-(1-(4-(6-fluoro-1H-benzo[d]imidazol-1-yl)butyl)piperidin-4-yl)benzo[d]isoxazole] |  | 97.61* % | 100.0** % | 100.0** % | 92.55* % | 172.2* % | 97.22% | 64** | 59.3 ± 0.7 | 0 | 44.1 ± 0.2 | 3.99 | 2.69 |  | 99.1 |  | 86
